Patent US5063245A, “Corticotropin-releasing factor antagonism compounds” (Nova Pharmaceutical Corporation, priority 1990, dated 1991)
pIC50: −log10 of the molar value. “Also recorded” adds a separate entry of the source. Where a name gives a salt, the structure may show the parent alone. Read-outs that look alike come from different tables or passages of the source. Ends that are not written are not given here.

Key:
CRF receptor = target: T1, CRF receptor (Rattus norvegicus, UniProt P35353); test: In vitro receptor binding: inhibition of specific binding of [125I]tyrosine-oCRF to rat cerebral cortex membranes; settings: [125I]Tyr-oCRF 50-100 pM, 2 hours at room temperature
T1 construct: the cerebral cortex was removed and the tissue homogenized; from tissue; host or cells: cerebral cortex membranes of male Sprague-Dawley rats
T1 sequence (P35353 24-415): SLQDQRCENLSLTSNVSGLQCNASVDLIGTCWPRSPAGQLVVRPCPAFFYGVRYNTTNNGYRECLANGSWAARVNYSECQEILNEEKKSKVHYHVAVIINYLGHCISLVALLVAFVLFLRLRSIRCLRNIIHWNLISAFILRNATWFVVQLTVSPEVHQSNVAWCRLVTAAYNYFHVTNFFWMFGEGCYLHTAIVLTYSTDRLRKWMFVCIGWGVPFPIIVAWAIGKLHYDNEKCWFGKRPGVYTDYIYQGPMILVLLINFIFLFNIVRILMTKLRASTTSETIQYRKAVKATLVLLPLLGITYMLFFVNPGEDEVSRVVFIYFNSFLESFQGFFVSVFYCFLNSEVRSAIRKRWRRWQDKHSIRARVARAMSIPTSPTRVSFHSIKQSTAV
Procedure: The potency of the compounds of the invention as inhibitors of the specific binding of radiolabeled CRF to rat cerebral cortex membranes was examined using a standard in vitro radioligand binding technique. […] The homogenate was centrifuged at 48,000×g for 10 minutes at 4° C. The supernatant was removed, the tissue pellet suspended in the original volume of fresh homogenization buffer using a Polytron and centrifuged as before. […] Incubation buffer consists of 50 mM Hepes (pH 7.0 at 22° C.) containing 10 mM MgCl2, 2 mM EGTA, 0.1 mM bacitracin, 100 KIU (kallikrein inhibitor units)/mL aprotinin and 0.1% BSA (bovine serum albumin). […] Nonspecific binding was determined in the presence of 1 μM oCRF. The binding reaction was allowed to proceed for 2 hours at room temperature. Bound radioligand was separated from the incubation medium by centrifugation in a Beckman microfuge for 5 minutes at 12,000×g. The supernatant was aspirated and the resulting pellet was washed with 1 mL of cold phosphate buffered saline (pH 7.2) containing 0.01% of Triton X-100.
Tyr-oCRF to rat cortical membranes was determined on at least three separate occasions using 8-10 concentrations of each compound and utilizing triplicate incubations. The IC50 and apparent Hill coefficient for each compound were calculated using a computer-assisted log-logit analysis.

[1] = target: CRF-stimulated adenylate cyclase; test: Inhibition of CRF-stimulated adenylate cyclase activity (rat frontal cortex); format: biochemical; settings: 1 μM oCRF, 37° C., 10 minutes
Text: CRF antagonist activity is established by the ability of the compounds to antagonize CRF-stimulated adenylate cyclase activity, it having been established that CRF receptors are coupled to a guanine nucleotide regulatory protein that activates adenylate cyclase [G. Aguilera et al., Neuroendocrinology, 43, 79 (1986); G. Battaglia et al., Synapse, 1, 572 (1987)].
(§1) Male Sprague-Dawley rats (175-250 g) were sacrificed by decapitation, the frontal cortex was dissected and homogenized in 30 volumes (w/v) of ice-cold buffer (50 mM Tris HCl, 10 mM MgCl2, 2 mM EGTA; pH 7.2 at 22° C.). The homogenate was centrifuged at 40,000×g for 3 minutes (4° C.), the supernatant discarded and the pellet resuspended in original volume of fresh homogenization buffer. Following centrifugation at 40,000×g for 30 minutes, the resulting pellet was suspended to a tissue concentration of 20 mg original wet weight of tissue per mL (approximately 40-60 μg protein/mL). For determination of basal adenylate cyclase activity, assays are carried out at 37° C. for 10 minutes in 250 μL of buffer containing 100 mM Tris HCl, 10 mM MgCl2, 0.4 mM EGTA, 0.1% BSA, 1 mM isobutylmethylxanthine (IBMX), 3 units/tube phosphocreatine kinase, 5 mM creatine phosphate, 100 μM guanosine. Maximal stimulation of adenylate cyclase activity was accomplished by the addition of 10^-6 M oCRF. Stimulated enzyme activity generally represented a 75-95% increase over basal levels. Reactions were initiated by the addition of tissue and terminated by the addition of 150 μL of 50 mM Tris HCl, 45 mM ATP, 2% sodium dodecyl sulfate (SDS), and [^3 H] cAMP (approximately 40,000 dpm). The [^3 H]cAMP was added to each assay tube to monitor recovery of cAMP during subsequent chromatography steps. Separation of [^32 P]cAMP from [^32 P]ATP was accomplished by sequential elution over Dowex and alumina columns. The eluate (4 mL) was collected in 20 mL scintillation vials to which 8 mL of Beckman EP fluor was added. Vials were shaken for 30 minutes prior to measuring ^3 H and ^32 P by scintillation counting. All data were fed directly from the liquid scintillation counter via RS232 port to a VAX 8300 computer. Individual data points were expressed as pmoles of cAMP formed/10 minutes/mg protein. Protein content of tissue samples was measured using the BioRad method with bovine serum albumin serving as the standard.
Determination of antagonist activity was accomplished by addition of at least six concentrations of the compound (10^-8 -10^-4 M), evaluated in triplicate, in the presence of a maximally stimulating concentration of oCRF (1 μM). IC50 values were derived from a log-logit transformation of the data on a Vax 8300.

[2] = intracerebroventricular (icv); cited from earlier work
adenylate cyclase = test: Stimulation of adenylate cyclase activity by oCRF (rat frontal cortex); format: biochemical; settings: 10^-6 M oCRF, 37° C., 10 minutes
Procedure: as §1, with “Reactions were initiated by the addition of tissue and terminated by the addition of 150 μL of 50 mM Tris HCl, 45 mM ATP, 2% sodium dodecyl sulfate (SDS), and [^3 H] cAMP (approximately 40,000 dpm). The [^3 H]cAMP was added to each assay tube to monitor recovery of cAMP during subsequent chromatography steps. Separation of [^32 P]cAMP from [^32 P]ATP was accomplished by sequential elution over Dowex and alumina columns. The eluate (4 mL) was collected in 20 mL scintillation vials to which 8 mL of Beckman EP fluor was added. Vials were shaken for 30 minutes prior to measuring ^3 H and ^32 P by scintillation counting. All data were fed directly from the liquid scintillation counter via RS232 port to a VAX 8300 computer.” left out

[3] = Table I, Formula I, read-out: Inhibition of CRF Binding, Rat Cerebral Cortex Membrane, IC50
[4] = Table II, Formula II (disulfides), read-out: Inhibition of CRF Binding, Rat Cerebral Cortex Membrane, IC50
[5] = Table II, Formula II (disulfides)

pIC50 ([1]; Table I, Formula I)	pIC50 (CRF receptor; [4])	pIC50 [1, 5]	Compound	other results
4.71	–	–	Cc1c(SC#N)c(=O)n(-c2ccccc2)n1C [Formula I: Ph, CH3, CH3, SCN, 2,3-dimethyl-5-oxo-1-phenyl-3-pyrazolin-4-yl thiocyanate]	pIC50 (CRF receptor; [3]): 4.80
4.30	–	–	Cn1c(N)c(SC#N)c(=O)n1-c1ccccc1 [Formula I: Ph, CH3, NH2, SCN, 3-amino-2-methyl-5-oxo-1-phenyl-3-pyrazolin-4-yl thiocyanate]	pIC50 (CRF receptor; [3]): 4.84
5.21	–	–	Cc1c(SC#N)c(=O)n(-c2ccccc2)n1-c1ccccc1 [Formula I: Ph, Ph, CH3, SCN, 3-methyl-5-oxo-1,2-phenyl-3-pyrazolin-4-yl thiocyanate]	pIC50 (CRF receptor; [3]): 4.79
–	5.54	5.37	CCn1c(C)c(SSc2c(C)n(CC)n(-c3ccc(Cl)c(Cl)c3)c2=O)c(=O)n1-c1ccc(Cl)c(Cl)c1 [Formula II: 3,4-Cl2 Ph, C2 H5, CH3, 2-ethyl-3-methyl-5-oxo-1-(3,4-dichlorophenyl)-3-pyrazolin-4-yl disulfide]	–
–	5.37	5.42	CCn1c(C)c(SSc2c(C)n(CC)n(Cc3ccccc3)c2=O)c(=O)n1Cc1ccccc1 [Formula II: CH2 Ph, C2 H5, CH3, 1-benzyl-2-ethyl-3-methyl-5-oxo-3-pyrazolin-4-yl disulfide]	–
–	5.32	6.00	CCn1c(C)c(SSc2c(C)n(CC)n(-c3ccccc3)c2=O)c(=O)n1-c1ccccc1 [Formula II: Ph, C2 H5, CH3, 2-ethyl-3-methyl-5-oxo-1-phenyl-3-pyrazolin-4-yl disulfide]	–
–	5.48	5.48	CCc1c(SSc2c(CC)n(C)n(-c3ccccc3)c2=O)c(=O)n(-c2ccccc2)n1C [Formula II: Ph, CH3, C2 H5, 3-ethyl-2-methyl-5-oxo-1-phenyl-3-pyrazolin-4-yl disulfide]	–
–	5.66	5.96	Cc1c(SSc2c(C)n(C)n(-c3ccccc3)c2=O)c(=O)n(-c2ccccc2)n1C [Formula II: Ph, CH3, CH3, 2,3-Dimethyl-5-Oxo-1-Phenyl-3-Pyrazolin-4-yl Disulfide]	–
–	5.19	5.60	Cc1c(SSc2c(C)n(C)n(-c3ccccc3)c2=O)c(=O)n(-c2ccccc2)n1C [Formula II: Ph, CH3, CH3, HCl, 2,3-Dimethyl-5-Oxo-1-Phenyl-3-Pyrazolin-4-yl Disulfide]	–
–	–	–	CRF: corticotropin releasing factor (SEEPPISLDLTFHLLREVLEMARAEQLAQQAHSNRKLMEII; ends and bridges not checked; UniProt P06850 154-194, looked up)	effect of icv injection of CRF (in words) [2]: elicits behavioral activation; also recorded: produces a long-lasting activation of the electroencephalogram; also recorded: stimulates the sympathoadrenomedullary pathway; also recorded: increases heart rate and blood pressure; also recorded: increases oxygen consumption; also recorded: alters gastrointestinal activity; also recorded: suppresses food consumption; also recorded: compromises immune function
–	–	–	oCRF: ovine CRF, a 41 residue straight chain peptide	Stimulated enzyme activity, increase over basal levels (adenylate cyclase): 75-95%

Compound	pIC50 ([1]; Table I, Formula I)	pIC50 (CRF receptor; [4])	pIC50 [1, 5]	other results
Cc1c(SC(Cl)(Cl)Cl)c(=O)n(-c2ccccc2)n1C [Formula I: Ph, CH3, CH3, SCCl3, 2,3-Dimethyl-5-Oxo-1-Phenyl-3-4-trichloromethylthio-Pyrazoline]	5.02	–	–	pIC50 (CRF receptor; Inhibition of CRF Binding, Rat Cerebral Cortex Membrane, IC50, Table I, Formula I): 4.69
